Entries after “also recorded” stand apart in the source; their conditions may differ.
Experiments:
[1] = tested on: cytochrome c; experiment: Cytochrome c reduction assay; type: biochemical; details: 100 μM compound, 10 μM cytochrome c, absorbance 550 nm
Method: The rate of cytochrome c (10 μM) reduction was measured by monitoring the change in absorbance at 550 nm. Briefly the reaction was initiated by addition of 100 μM of the invention compounds to a mixture containing 50 mM phosphate buffer, 0.1 mM EDTA, pH 7.8, and 10 μM cytochrome c (Sigma, St. Louis, Mo. USA). For cytochrome c reduction by superoxide, xanthine oxidase (0.01 IU/mL) (Sigma, St. Louis, Mo. USA) was used in presence of xanthine (50 μM).

[2] = tested on: bovine heart mitochondrial membranes; experiment: Thiobarbituric acid reactive species (TBARS) assay; type: biochemical; details: H2O2 generated using glucose oxidase
Method: Lipid peroxidation by hydrogen peroxide in bovine heart mitochondrial membranes was determined by measuring the amount of thiobarbituric acid reactive substances released. Bovine heart mitochondria (1 mg protein) prepared as described by Smith (38) were added to 800 μL of 50 mM phosphate buffer, pH 8.0, and subjected to oxidative stress by the addition of 25 mM glucose and 1 U/mL glucose oxidase from Aspergillus niger. Samples were incubated with or without test compounds at 37° C. for 30 minutes. Two hundred μL each of 1% (w/v) thiobarbituric acid and 35% (v/v) perchloric acid, as well as 0.1% (w/v) butylated hydroxytoluene (from a 2% stock solution in DMSO) were added. Samples were heated at 100° C. for 15 minutes. One-mL aliquots of each sample were taken and diluted in 2 mL of water, then extracted once with 2 mL of n-butanol. […] TBARS were determined fluorometrically from the emission spectrum (λex 515 nm; λem 550 nm) using a Varian fluorimeter. The malondialdehyde concentration was determined based on a standard curve created using serial dilutions of 10 mM 1,1,3,3-tetraethoxypropane hydrolyzed in 1% (v/v) H2SO4 at 4° C. overnight. The malondialdehyde concentration was expressed as nmoles manoldialdehyde per mg protein. Protein in aliquots of the homogenates was determined by the bicinchoninic acid method.

[3] = tested on: CEM leukemia cells; experiment: C11-BODIPY581/591 oxidation in cell culture (lipid peroxidation); type: cell-based, human; details: 2.5 or 1 μM, pretreatment 4 or 24 hours, glutathione depleted
Method: Lipid peroxidation in CEM leukemia cells was detected by utilizing the oxidant-sensitive lipophilic probe C11 BODIPY^581/591. Briefly, CEM cells (5×10^5 cell/mL) were treated with the test compounds at final concentrations of 1 and 2.5 μM, and incubated at 37° C. for 4 or 24 h in a humidified atmosphere containing 5% CO2 in air. Cells were treated with 500 nM C11 BODIPY^581/591 in phenol red-free RPMI-1640 media and incubated at 37° C. in the dark for 30 minutes. The cells were washed twice with phosphate buffered saline and oxidative stress was induced with 5 mM DEM in phenol red-free RPMI-1640 media for 90 minutes. Treated cells were collected by centrifugation at 300×g for 3 minutes and then washed twice with phosphate buffered saline. Cells were resuspended in 250 μL of phosphate buffered saline and were analyzed by FACS (FACS Calibur flow cytometer, Becton Dickinson) to monitor the change in intensity of the C11 BODIPY^581/591-green (oxidized) fluorescence signal.

SMILES	reduction of cytochrome c [1]	preventing TBARS formation [2]	protection against lipid peroxidation in cells (C11-BODIPY581/591 green fluorescence) [3]
Cc1nc(N(C)C)nc(CCCCCCCCCCO)c1O [Compound A, 2-N,N-dimethylamino-5-hydroxy-4-methyl-6-(10-hydroxydecyl)-pyrimidine]	clearly reduce cytochrome c	–	–
Cc1nc2c(c(CC[C@](C)(O)CCC[C@H](C)CCC[C@H](C)CCCC(C)C)c1O)CCN2C [Compound C, 4-((3R,7R,11R)-3-hydroxy-3,7,11,15-tetramethylhexadecyl)-1,6-dimethyl-2,3-dihydro-1H-pyrrolo[2,3-b]pyridine-5-ol]	–	more effective in preventing TBARS formation	better protection against lipid peroxidation than α-tocopherol in a concentration and time-dependent fashion; also recorded: clearly superior to α-tocopherol in quenching lipid peroxidation in a time- and dose-dependent fashion

— patent US8952025B2, “Multifunctional radical quenchers and their uses” (Arizona Board of Regents, A Body Corporate of the State of …, priority 2010, dated 2015)
